Data: ChEMBL document CHEMBL1126858, “Synthesis of (R,S)-trans-8-hydroxy-2-[N-n-propyl-N-(3'-iodo-2'-propenyl)amino]tetral in (trans-8-OH-PIPAT): a new 5-HT1A receptor ligand” (J Med Chem, 1993)

Tests used:
Rattus norvegicus = species: Rattus norvegicus; assay: Inhibitory activity against (125I)-(R,S)-trans-8-OH-PIPAT binding to the rat hippocampal homogenate; type: functional, Hippocampus
[1] = Hill coefficient of the compound; type: ADME
D(3) dopamine receptor = D(3) dopamine receptor (Rattus norvegicus, UniProt P19020); assay: Inhibitory activity against [125I]- NCQ298 binding to dopamine receptor D3 in Sf 9 cells; type: cell-based
D(3) dopamine receptor, sequence (P19020 whole entry): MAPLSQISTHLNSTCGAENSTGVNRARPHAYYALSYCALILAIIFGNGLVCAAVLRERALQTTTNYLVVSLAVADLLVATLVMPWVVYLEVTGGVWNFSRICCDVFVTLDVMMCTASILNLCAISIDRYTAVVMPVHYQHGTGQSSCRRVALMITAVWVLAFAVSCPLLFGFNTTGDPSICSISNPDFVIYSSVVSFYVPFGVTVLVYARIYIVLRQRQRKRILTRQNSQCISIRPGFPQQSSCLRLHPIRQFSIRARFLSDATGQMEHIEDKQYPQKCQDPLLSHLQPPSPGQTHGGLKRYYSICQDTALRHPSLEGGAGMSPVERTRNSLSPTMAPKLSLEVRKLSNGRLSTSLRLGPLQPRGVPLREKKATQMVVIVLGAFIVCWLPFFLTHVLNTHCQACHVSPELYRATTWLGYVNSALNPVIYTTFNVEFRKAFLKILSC

[2] = biological target: T1, 5-hydroxytryptamine receptor 1A (Rattus norvegicus, UniProt P19327); assay: Binding affinity towards 5-hydroxytryptamine 1A receptor by the displacement of [125I]trans-8-OH-PIPAT in membrane homogenates of hippocampal tissue of rat brain; type: tissue-based, Hippocampus
T1 sequence (P19327 whole entry): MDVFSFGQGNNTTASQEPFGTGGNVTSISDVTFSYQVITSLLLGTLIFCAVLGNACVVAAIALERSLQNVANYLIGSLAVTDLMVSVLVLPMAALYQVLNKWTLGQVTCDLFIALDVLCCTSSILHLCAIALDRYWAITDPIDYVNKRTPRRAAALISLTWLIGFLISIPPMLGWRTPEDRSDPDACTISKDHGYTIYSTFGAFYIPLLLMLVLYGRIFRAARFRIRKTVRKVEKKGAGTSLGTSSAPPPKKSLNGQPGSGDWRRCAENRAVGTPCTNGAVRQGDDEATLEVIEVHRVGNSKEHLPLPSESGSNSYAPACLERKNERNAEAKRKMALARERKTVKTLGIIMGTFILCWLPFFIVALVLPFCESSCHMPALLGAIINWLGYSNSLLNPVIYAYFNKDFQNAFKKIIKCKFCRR

D(2) dopamine receptor = D(2) dopamine receptor (Homo sapiens, UniProt P14416); assay: Inhibitory activity against [125I]- NCQ298 binding to dopamine receptor D2 in Sf 9 cells; type: cell-based
D(2) dopamine receptor, sequence (P14416 whole entry): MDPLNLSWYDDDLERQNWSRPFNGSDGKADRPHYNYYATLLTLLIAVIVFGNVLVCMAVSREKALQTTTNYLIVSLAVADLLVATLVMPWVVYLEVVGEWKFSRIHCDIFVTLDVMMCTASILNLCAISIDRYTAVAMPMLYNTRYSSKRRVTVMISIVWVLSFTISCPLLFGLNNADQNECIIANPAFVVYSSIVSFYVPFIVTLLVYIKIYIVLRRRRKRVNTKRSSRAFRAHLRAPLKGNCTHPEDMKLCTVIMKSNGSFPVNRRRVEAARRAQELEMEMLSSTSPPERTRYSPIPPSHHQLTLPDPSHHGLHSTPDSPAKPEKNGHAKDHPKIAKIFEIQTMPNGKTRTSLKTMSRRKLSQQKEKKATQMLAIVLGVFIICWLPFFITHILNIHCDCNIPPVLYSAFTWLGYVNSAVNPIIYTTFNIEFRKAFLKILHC

SMILES | Hill coefficient [1] | Ki [2] | also measured
CCCN(CCC)C1CCc2cccc(O)c2C1 (racemic) [8-OH-DPAT] | 0.83 |  | Ki (Rattus norvegicus): 0.91 nM; Ki (D(3) dopamine receptor): 251 nM
CC(C)NCC(O)COc1cccc2ccccc12 (racemic) [PROPRANOLOL] | 0.99 |  | 
NCCc1ccc(O)c(O)c1 [DOPAMINE] |  | > 10000 nM | 
CCCN(C/C=C/I)C1CCc2cccc(O)c2C1 (racemic) | 0.85 | 0.3 nM | Ki (D(2) dopamine receptor): 1070 nM; Ki (D(3) dopamine receptor): 125 nM
O=C(c1ccc(F)cc1)C1CCN(CCn2c(=O)[nH]c3ccccc3c2=O)CC1 [KETANSERIN] | 1.04 |  | 
CCCN(CCC)C1CCc2ccc(O)cc2C1 (racemic) | 0.82 | 72.7 nM | 
NCCc1c[nH]c2ccc(O)cc12 [SEROTONIN] | 1.04 |  | 
O=C(CCCN1CCC2(CC1)C(=O)NCN2c1ccccc1)c1ccc(F)cc1 [SPIPERONE] | 0.86 | 602 nM | 
COc1cccc(OC)c1OCCNCC1COc2ccccc2O1 (configuration not stated) |  | 2.68 nM | 
CCCN(C/C=C/I)C1CCc2ccc(O)cc2C1 (racemic) | 0.9 |  | 
